Earlier results, collected in patent publication US20240009304A1, “USE OF NGF ANTIBODY IN CIPN PAIN” (Dartsbio Pharmaceuticals Ltd., priority 2020, published 2024).

What was measured:
CIPN pain = conditions: background statement; cited from earlier work
neuronal NE reuptake = conditions: preclinical studies, background; cited from earlier work
dopamine reuptake = conditions: preclinical studies, background; cited from earlier work
neuronal 5-HT reuptake = conditions: preclinical studies, background; cited from earlier work
[1] = tested on: dopaminergic receptor, adrenergic receptor, cholinergic receptor, histaminergic receptor, opioid receptor, glutamate receptor and GABA receptor; conditions: in vitro study, background; cited from earlier work
monoamine oxidase = conditions: background; cited from earlier work

Structure (SMILES) | effect in the treatment of CIPN pain (CIPN pain) | neuronal NE reuptake inhibition (neuronal NE reuptake) | inhibitory effect on dopamine reuptake (dopamine reuptake) | neuronal 5-HT reuptake inhibition (neuronal 5-HT reuptake) | affinity with receptors [1] | inhibition of monoamine oxidase (monoamine oxidase)
NCC1(CC(=O)O)CCCCC1 [gabapentin] | do not seem to be more effective than placebo | – | – | – | – | –
CN(C)CCC=C1c2ccccc2CCc2ccccc21 [amitriptyline] | do not seem to be more effective than placebo | – | – | – | – | –
CNCC[C@H](Oc1cccc2ccccc12)c1cccs1 [Duloxetine] | proven to be effective | strong inhibitor | relatively weak | strong inhibitor | no obvious affinity | does not inhibit
CC(C)C[C@H](CN)CC(=O)O [pregabalin] | do not seem to be more effective than placebo | – | – | – | – | –
